Article PMC11942279, “Multiple Inhibitory Mechanisms of DS16570511 Targeting Mitochondrial Calcium Uptake: Insights from Biochemical Analysis of Rat Liver Mitochondria” (International Journal of Molecular Sciences, 2025)

Key:
[1] = molecular target: T1, respiratory chain complex II (Rattus norvegicus, UniProt P21913+Q641Z9+Q6PCT8+Q920L2); experiment: Mitochondrial oxygen consumption with succinate as respiratory substrate; type: biochemical
T1 construct: from tissue; host or cells: rat liver mitochondria (male Wistar rats)
Procedure: Figure 5 Effect of DS16570511 on oxygen consumption in the presence of succinate. (a) Mitochondria (Mt), 10 mM succinate, and 0.1 µM SF6847 were added to Pi medium containing the indicated concentrations of DS16570511 or antimycin at the time points marked by arrows. Changes in dissolved oxygen concentration in the reaction medium were measured, and representative traces are shown. “natomsO” denotes the nanomoles of oxygen atoms in the reaction medium. (b) The degree of inhibition was calculated from the rate of oxygen consumption over a 3 min period, measured 30 s after SF6847 addition. […] Data are presented as the mean ± standard deviation of independent experiments (n = 3).
(§1) Livers were harvested from 6- to 18-week-old male Wistar rats (Japan SLC, Shizuoka, Japan), and mitochondria were isolated as previously described. All animal experiments complied with the University of Tokushima Guidelines for the Care and Use of Laboratory Animals (approval number: T28-29). Mitochondrial protein concentrations were measured using the Biuret method with bovine serum albumin as the standard in the presence of 1% SDS.
When electrons were supplied via respiratory chain complex I, 5 mM glutamate and 5 mM malate were used as respiratory substrates. For electrons supplied via respiratory chain complex II, 0.68 µg/mL rotenone was added beforehand to inhibit electron transfer from endogenous respiratory chain complex I, and 10 mM succinate was used as the respiratory substrate.

[2] = system: mitochondrial Ca2+ uptake in rat liver mitochondria; experiment: Mitochondrial Ca2+ uptake assay (succinate-energized, Fluo-5); type: biochemical; details: 10 mM succinate, Ca2+ uptake rate during first 30 s after adding mitochondria, read-out: IC50 for inhibition of mitochondrial Ca2+ uptake
Procedure: Figure 2 Effect of DS16570511 on mitochondrial Ca^2+ uptake activity in rat liver mitochondria. (a) Mitochondrial Ca^2+ uptake activity was measured in isolated rat liver mitochondria. Mitochondria were added to Pi medium containing the indicated concentrations of DS16570511 or ruthenium 360, and changes in extramitochondrial Ca^2+ concentration over time were analyzed based on Fluo-5 fluorescence intensity. Representative traces are shown. (b) The degree of inhibition was calculated from the Ca^2+ uptake rate during the first 30 s after adding mitochondria. Data are expressed as 0% inhibition in the absence of DS16570511 (none) and 100% inhibition in the presence of ruthenium 360. […]
(§2) Livers were harvested from 6- to 18-week-old male Wistar rats (Japan SLC, Shizuoka, Japan), and mitochondria were isolated as previously described. […] Mitochondrial protein concentrations were measured using the Biuret method with bovine serum albumin as the standard in the presence of 1% SDS.
Fluo-5 (1 µM) was used as a Ca^2+-sensitive fluorescence indicator in 1 mL of Pi medium (250 mM sucrose, 10 mM Tris-MOPS, 10 µM EGTA-Tris, 0.5 mg/mL bovine serum albumin, and 10 mM KPi, pH 7.4). Fluorescence intensity was measured using an F-2700 spectrofluorometer (HITACHI, Tokyo, Japan) with excitation and emission wavelengths of 494 and 516, respectively. […]

[3] = system: membrane potential in rat liver mitochondria; experiment: Measurement of mitochondrial membrane potential formation (DiSC3(5)); type: biochemical; details: 10 mM succinate, first 5 s after succinate addition, read-out: IC50 for inhibition of membrane potential formation
Procedure: Figure 3 Effect of DS16570511 on membrane potential in rat liver mitochondria. (a) Rat liver mitochondria were incubated in Pi medium containing the indicated concentrations of DS16570511 or antimycin. At the time points indicated by arrows, 10 mM succinate was added as a respiratory substrate, and membrane potential was measured using 3 µM DiSC3(5) as a probe. Representative traces are shown. (b) The degree of inhibition was calculated from the rate of membrane potential formation during the first 5 s after succinate addition, with 0% inhibition in the absence of DS16570511 (none) and 100% inhibition in the presence of SF6847. […]
as §2
DiSC3(5) (3 µM) was used as a fluorescent probe to measure mitochondrial membrane potential in 2.2 mL of Pi medium. Fluorescence intensity was measured using an F-2700 spectrofluorometer (HITACHI, Tokyo, Japan) with excitation and emission wavelengths of 643 and 666 nm, respectively. Fluorescence intensity was recorded after adding 10 mM succinate to Pi medium containing 2.5 µM CsA, 0.68 µg/mL rotenone, 0.42 mg protein/mL mitochondria, and DS16570511. […]

rat liver mitochondria = experiment: Comparison with uncouplers on mitochondrial oxygen consumption; type: biochemical; details: 10 mM succinate, DS16570511 50 or 200 µM
Procedure: Figure 4 Comparison of the effects of DS16570511 and uncouplers on mitochondrial oxygen consumption. Mitochondria (Mt), 10 mM succinate (Succ), and each compound (50 or 200 µM DS16570511 [DS], SF6847 [SF], or alamethicin [Ala]) were added to Pi medium at the time points indicated by arrows. Changes in the concentration of dissolved oxygen in the reaction medium were measured using an oxygen electrode. Representative traces are shown. “natomsO” denotes the nanomoles of oxygen atoms in the reaction medium.
The rate of mitochondrial oxygen consumption was measured using a Clark-type oxygen electrode (YSI5331, Yellow Springs Instrument Co., Ltd., Yellow Springs, OH, USA) at 25 °C in 2.2 mL of Pi medium preincubated with 2.5 µM CsA. When electrons were supplied via respiratory chain complex I, 5 mM glutamate and 5 mM malate were used as respiratory substrates. For electrons supplied via respiratory chain complex II, 0.68 µg/mL rotenone was added beforehand to inhibit electron transfer from endogenous respiratory chain complex I, and 10 mM succinate was used as the respiratory substrate. The degree of inhibition and IC50 values of DS16570511 were calculated based on the oxygen consumption rate over a 3 min period, starting 30 s after the addition of SF6847.

[4] = system: respiratory chain complexes I–III–IV; experiment: Mitochondrial oxygen consumption with glutamate and malate as respiratory substrates; type: biochemical; details: rat liver mitochondria, 5 mM glutamate, 5 mM malate, 0.1 µM SF6847; read-out: IC50 for inhibition of oxygen consumption (glutamate and malate; respiratory chain complexes I–III–IV)
Procedure: Figure 6 Effect of DS16570511 on oxygen consumption in the presence of glutamate and malate. (a) Mitochondria (Mt), 5 mM glutamate, 5 mM malate, and 0.1 µM SF6847 were added to Pi medium containing the indicated concentrations of DS16570511 or antimycin at the time points marked by arrows. Changes in dissolved oxygen concentration in the reaction medium were measured, and representative traces are shown. “natomsO” denotes the nanomoles of oxygen atoms in the reaction medium. (b) The degree of inhibition was calculated from the rate of oxygen consumption over a 3 min period, measured 30 s after SF6847 addition. Results are expressed as 0% inhibition in the absence of DS16570511 (none) and 100% inhibition with antimycin. Data are presented as the mean ± standard deviation of independent experiments (n = 3).
as §2
The rate of mitochondrial oxygen consumption was measured using a Clark-type oxygen electrode (YSI5331, Yellow Springs Instrument Co., Ltd., Yellow Springs, OH, USA) at 25 °C in 2.2 mL of Pi medium preincubated with 2.5 µM CsA. […]

FoF1-ATPase/ANT = experiment: Mitochondrial FoF1-ATPase activity (pH electrode); type: biochemical; details: rat liver mitochondria, 1 mM ATP, antimycin, pH change over 3 min; read-out: IC50 for inhibition of FoF1-ATPase/ANT activity (pH decrease)
Procedure: Figure 7 Effect of DS16570511 on mitochondrial FoF1-ATPase activity. (a) Schematic representation of mitochondrial FoF1-ATPase activity: ATP enters the matrix via ANT and is hydrolyzed to ADP by FoF1-ATPase, driving proton extrusion from the matrix and decreasing the reaction medium pH. […] (b) Mitochondria were added to the incubation medium containing the indicated concentrations of DS16570511 or oligomycin, and pH changes in the medium were measured using a pH electrode. Representative traces are shown. (c) Inhibition was calculated from the pH change over a 3 min period, starting 30 s after adding mitochondria. Results are expressed as 0% inhibition in the absence of DS16570511 and 100% inhibition with oligomycin. Data are presented as the mean ± standard deviation of independent experiments (n = 3).
as §1
Mitochondrial FoF1-ATPase activity was measured using a modified version of the classical pH electrode-based method. […]

Ca2+ uptake = details: read-out: IC50 for inhibition of Ca2+ uptake; cited from earlier work
mice = system: mice; parameters: method as in PMID 32126877, PMID 38779706; details: cited from earlier work
[5] = rat liver mitochondria, succinate

T1 sequence (Q920L2 35-656): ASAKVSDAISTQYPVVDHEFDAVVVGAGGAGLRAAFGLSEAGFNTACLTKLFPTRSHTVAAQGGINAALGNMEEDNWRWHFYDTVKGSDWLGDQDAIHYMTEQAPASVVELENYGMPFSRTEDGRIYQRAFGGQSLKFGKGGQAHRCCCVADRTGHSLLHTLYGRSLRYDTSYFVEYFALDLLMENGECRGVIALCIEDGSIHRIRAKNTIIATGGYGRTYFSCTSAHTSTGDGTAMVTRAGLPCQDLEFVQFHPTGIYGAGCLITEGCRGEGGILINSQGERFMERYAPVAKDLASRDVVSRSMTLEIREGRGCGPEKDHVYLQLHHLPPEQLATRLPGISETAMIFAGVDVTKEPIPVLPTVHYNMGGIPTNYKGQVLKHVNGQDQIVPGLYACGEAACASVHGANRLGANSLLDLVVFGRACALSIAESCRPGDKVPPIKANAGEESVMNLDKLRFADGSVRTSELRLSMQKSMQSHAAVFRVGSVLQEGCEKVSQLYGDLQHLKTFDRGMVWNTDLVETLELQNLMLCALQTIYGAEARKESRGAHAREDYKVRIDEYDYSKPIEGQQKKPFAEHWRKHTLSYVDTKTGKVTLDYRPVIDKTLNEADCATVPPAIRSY
T1 sequence (P21913 31-282): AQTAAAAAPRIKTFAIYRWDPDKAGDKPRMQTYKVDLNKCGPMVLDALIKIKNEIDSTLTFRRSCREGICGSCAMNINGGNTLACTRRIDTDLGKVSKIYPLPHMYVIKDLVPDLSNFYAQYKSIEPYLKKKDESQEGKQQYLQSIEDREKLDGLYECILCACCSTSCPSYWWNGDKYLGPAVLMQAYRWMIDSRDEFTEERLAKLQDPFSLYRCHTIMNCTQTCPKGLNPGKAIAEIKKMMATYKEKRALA
T1 sequence (Q641Z9 30-169 limits assumed): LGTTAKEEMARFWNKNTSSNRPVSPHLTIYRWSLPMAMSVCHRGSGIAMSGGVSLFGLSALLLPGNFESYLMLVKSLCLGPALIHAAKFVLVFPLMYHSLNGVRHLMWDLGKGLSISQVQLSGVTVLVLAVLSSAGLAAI
T1 sequence (Q6PCT8 57-159): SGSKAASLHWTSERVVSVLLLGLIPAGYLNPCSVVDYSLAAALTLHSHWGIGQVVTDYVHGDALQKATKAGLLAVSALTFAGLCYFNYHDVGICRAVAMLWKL

**Q.** For `CCOC(=O)CCCn1cc(C(=O)c2cccc(NCc3c(-c4c(Cl)cccc4Cl)noc3C)c2)c2ccccc21` [Compound 2], which “Inhibitory activity on oxygen consumption via respiratory chain complex II (in words)” value [1, 5] is on record?
**A.** The value was “completely lacked inhibitory activity”.

**Q.** With `Cc1onc(-c2c(Cl)cccc2Cl)c1/C=N/c1cccc(C(=O)c2cn(CCCC(=O)O)c3ccccc23)c1` [Compound 3] as the compound, how does the IC50 [1] read?
**A.** Its IC50 is 52.7 µM.

**Q.** For `CCOC(=O)CCCn1cc(C(=O)c2cccc(/N=C/c3c(-c4c(Cl)cccc4Cl)noc3C)c2)c2ccccc21` [Compound 4], which “Inhibitory activity on oxygen consumption via respiratory chain complex II (in words)” value [1, 5] is on record?
**A.** Its value is “completely lacked inhibitory activity”.

**Q.** What does the source list for `Cc1onc(-c2c(Cl)cccc2Cl)c1CNc1cccc(C(=O)c2cn(CCCC(=O)O)c3ccccc23)c1` [DS16570511]?
**A.** IC50 [2]: 9.2 µM; IC50 [3]: 10.8 µM; Effect on mitochondrial oxygen consumption (uncoupling test, in words) (rat liver mitochondria): reduced the rate of oxygen consumption; IC50 [4]: 40.9 µM; IC50 (FoF1-ATPase/ANT): 97.2 µM; IC50 [1]: 9.5 µM; Inhibition of oxygen consumption at a single concentration (in words) ([1]; 200 µM, rat liver mitochondria, succinate, SF6847): inhibited oxygen consumption to the same extent as antimycin

**Q.** For `N.N.N.N.N.N.N.N.O=CO.O=CO.[O-2].[Ru+3].[Ru+4]` [Ruthenium 360], which IC50 (Ca2+ uptake) is on record?
**A.** The IC50 was 0.184 nM.

**Q.** Which “Effect on mitochondrial oxygen consumption (uncoupling test, in words)” value (rat liver mitochondria) does the source give for `CC(C)(C)c1cc(C=C(C#N)C#N)cc(C(C)(C)C)c1O` [SF6847] here?
**A.** The value was “markedly increased oxygen consumption”.

**Q.** For `N.N.N.N.N.N.N.N.[Cl][Ru+3].[N-]=[Ru][Cl]` [ruthenium 265], which “Adverse effect after intraperitoneal administration” value (mice) is on record?
**A.** Its value is “caused seizure-like movements”.

**Q.** With alamethicin as the compound, how does the “Effect on mitochondrial oxygen consumption (uncoupling test, in words)” value (rat liver mitochondria) read?
**A.** The value was “markedly increased oxygen consumption”.
